Data published in ChEMBL document CHEMBL3525928 (Drug Metab Dispos, 2011).

Assays:
Format in all cases: ADME, cell-based
OATP2B1 [1] = target: T1, OATP2B1 (Homo sapiens, UniProt O94956); test: Drug uptake ratio assessed as enzyme-mediated uptake in HEK293 cells expressing human OATP2B1 at 1 uM at 37 degC for 3 mins by liquid scintillation spectroscopy relative to wild type
T1 sequence (O94956 whole entry): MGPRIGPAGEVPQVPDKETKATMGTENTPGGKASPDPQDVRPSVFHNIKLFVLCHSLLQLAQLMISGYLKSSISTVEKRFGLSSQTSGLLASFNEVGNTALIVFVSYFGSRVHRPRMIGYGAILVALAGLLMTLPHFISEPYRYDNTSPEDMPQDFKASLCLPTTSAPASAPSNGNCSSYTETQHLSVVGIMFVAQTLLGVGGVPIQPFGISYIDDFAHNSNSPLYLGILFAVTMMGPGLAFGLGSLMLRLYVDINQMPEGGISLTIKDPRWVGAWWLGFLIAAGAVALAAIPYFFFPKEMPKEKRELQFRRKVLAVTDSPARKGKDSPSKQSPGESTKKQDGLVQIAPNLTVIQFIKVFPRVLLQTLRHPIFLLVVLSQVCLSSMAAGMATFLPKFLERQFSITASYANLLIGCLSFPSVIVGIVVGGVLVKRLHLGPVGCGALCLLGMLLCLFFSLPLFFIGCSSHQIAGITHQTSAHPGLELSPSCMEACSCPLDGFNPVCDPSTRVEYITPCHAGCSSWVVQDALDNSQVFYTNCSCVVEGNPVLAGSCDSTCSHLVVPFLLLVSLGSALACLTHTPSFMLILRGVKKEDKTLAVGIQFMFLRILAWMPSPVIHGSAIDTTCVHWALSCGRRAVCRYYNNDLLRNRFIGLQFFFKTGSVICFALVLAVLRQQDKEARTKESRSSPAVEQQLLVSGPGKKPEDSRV

OATP1B1 [2] = target: T2, OATP1B1 (Homo sapiens, UniProt Q9Y6L6); test: Drug uptake ratio assessed as enzyme-mediated uptake in HEK293 cells expressing human OATP1B1 at 10 uM at 37 degC for 3 mins by liquid scintillation spectroscopy relative to wild type
T2 sequence (Q9Y6L6 whole entry): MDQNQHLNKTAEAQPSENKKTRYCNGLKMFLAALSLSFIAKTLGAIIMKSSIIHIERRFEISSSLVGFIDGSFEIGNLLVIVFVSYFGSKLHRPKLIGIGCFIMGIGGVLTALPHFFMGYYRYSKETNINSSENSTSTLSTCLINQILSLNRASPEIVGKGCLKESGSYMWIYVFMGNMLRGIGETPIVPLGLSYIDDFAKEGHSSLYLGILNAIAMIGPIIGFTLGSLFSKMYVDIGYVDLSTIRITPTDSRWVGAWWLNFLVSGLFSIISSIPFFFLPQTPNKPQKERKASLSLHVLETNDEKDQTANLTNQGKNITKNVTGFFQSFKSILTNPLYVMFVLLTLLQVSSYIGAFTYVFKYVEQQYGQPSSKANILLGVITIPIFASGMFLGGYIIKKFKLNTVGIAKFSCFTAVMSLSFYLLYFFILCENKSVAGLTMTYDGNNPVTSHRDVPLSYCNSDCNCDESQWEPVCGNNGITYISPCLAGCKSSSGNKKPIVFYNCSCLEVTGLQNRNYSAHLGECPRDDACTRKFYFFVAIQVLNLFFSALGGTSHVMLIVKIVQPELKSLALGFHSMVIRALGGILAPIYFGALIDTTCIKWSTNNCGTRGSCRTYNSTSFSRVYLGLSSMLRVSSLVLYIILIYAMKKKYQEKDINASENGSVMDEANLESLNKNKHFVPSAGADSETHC

OATP2B1 [3] = target: T1, OATP2B1; test: Drug uptake ratio assessed as enzyme-mediated uptake in HEK293 cells expressing human OATP2B1 at 10 uM at 37 degC for 3 mins by liquid scintillation spectroscopy relative to wild type
OATP1B1 [4] = target: T2, OATP1B1; test: Drug uptake ratio assessed as enzyme-mediated uptake in HEK293 cells expressing human OATP1B1 at 1 uM at 37 degC for 3 mins by liquid scintillation spectroscopy relative to wild type
OATP1B3 [5] = target: T3, OATP1B3 (Homo sapiens, UniProt Q9NPD5); test: Drug uptake ratio assessed as enzyme-mediated uptake in HEK293 cells expressing human OATP1B3 at 10 uM at 37 degC for 3 mins by liquid scintillation spectroscopy relative to wild type
T3 sequence (Q9NPD5 whole entry): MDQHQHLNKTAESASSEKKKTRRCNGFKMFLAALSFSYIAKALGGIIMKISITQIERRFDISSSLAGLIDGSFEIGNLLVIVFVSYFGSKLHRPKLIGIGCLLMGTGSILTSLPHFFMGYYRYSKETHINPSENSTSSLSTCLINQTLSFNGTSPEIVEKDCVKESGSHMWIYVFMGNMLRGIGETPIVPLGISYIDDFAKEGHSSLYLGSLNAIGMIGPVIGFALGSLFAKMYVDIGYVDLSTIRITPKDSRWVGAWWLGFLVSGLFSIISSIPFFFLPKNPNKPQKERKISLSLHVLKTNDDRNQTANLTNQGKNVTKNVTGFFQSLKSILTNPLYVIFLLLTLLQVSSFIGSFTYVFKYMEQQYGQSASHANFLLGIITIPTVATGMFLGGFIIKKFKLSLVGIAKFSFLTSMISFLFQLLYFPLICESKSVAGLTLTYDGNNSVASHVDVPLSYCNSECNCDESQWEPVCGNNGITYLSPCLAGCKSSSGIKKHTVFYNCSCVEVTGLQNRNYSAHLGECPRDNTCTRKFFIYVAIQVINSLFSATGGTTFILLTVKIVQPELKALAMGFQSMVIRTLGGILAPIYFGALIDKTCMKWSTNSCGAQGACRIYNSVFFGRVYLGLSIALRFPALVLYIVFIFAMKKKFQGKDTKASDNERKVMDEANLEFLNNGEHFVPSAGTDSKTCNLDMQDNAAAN

OATP1B3 [6] = target: T3, OATP1B3; test: Drug uptake ratio assessed as enzyme-mediated uptake in HEK293 cells expressing human OATP1B3 at 1 uM at 37 degC for 3 mins by liquid scintillation spectroscopy relative to wild type
OATP1B3 [7] = target: T3, OATP1B3; test: Drug uptake ratio assessed as enzyme-mediated uptake in HEK293 cells expressing human OATP1B3 at 1 uM at 37 degC for 3 mins cells pretreated with sodium butyrate by liquid scintillation spectroscopy relative to wild type
OATP1B3 [8] = target: T3, OATP1B3; test: Drug uptake ratio assessed as enzyme-mediated uptake in HEK293 cells expressing human OATP1B3 at 10 uM at 37 degC for 3 mins cells pretreated with sodium butyrate by liquid scintillation spectroscopy relative to wild type

uptake ratio at 0.05 h, 1 µM (OATP2B1 [1])	uptake ratio at 0.05 h, 10 µM (OATP1B1 [2])	uptake ratio at 0.05 h, 10 µM (OATP2B1 [3])	uptake ratio at 0.05 h, 1 µM (OATP1B1 [4])	Compound	uptake ratio at 0.05 h, 10 µM (OATP1B3 [5])	uptake ratio at 0.05 h, 1 µM (OATP1B3 [6])	uptake ratio at 0.05 h, 1 µM (OATP1B3 [7])	uptake ratio at 0.05 h, 10 µM (OATP1B3 [8])
44	2.2	50	6.7	C[C@]12CC[C@@H]3c4ccc(OS(=O)(=O)O)cc4CC[C@H]3[C@@H]1CCC2=O [ESTRONE SULFURIC ACID]	–	–	–	–
6	1.9	6.3	3.4	CC(C)c1nc(N(C)S(C)(=O)=O)nc(-c2ccc(F)cc2)c1/C=C/[C@@H](O)C[C@@H](O)CC(=O)O [ROSUVASTATIN]	39	35	16	25
–	–	–	–	C[C@]12CC[C@@H]3c4ccc(O)cc4CC[C@H]3[C@@H]1CC[C@@H]2O[C@@H]1O[C@H](C(=O)O)[C@@H](O)[C@H](O)[C@H]1O [ESTRADIOL 17B GLUCURONIDE]	116	87	74	78
